Measured values taken from patent US6962906B2, “Oligonucleotide analogues, methods of synthesis and methods of use” (Active Motif, priority 2000, dated 2005).
Values joined by “and” are separate entries in the source; they are usually repeats but may differ in a detail not shown here. Identical values can stand only once.

Experiments:
Assay type in all cases: binding
[1] = tested on: DNA oligomer 5′-TGGTCTCACGTCAGTG-3′ (SEQ ID NO: 19); experiment: Melting curve analysis, mismatch discrimination in moderate salt, DNA/DNA control; settings: for Tm, ° C. DNA/DNA: 20 millimolar Tris-HCl, pH 7.5, 150 millimolar NaCl, 10 millimolar MgCl2, oligomers 1:1; for ΔTm DNA/DNA: 150 millimolar NaCl, relative to no mismatches
Description: (§1) The sequence of the […] oligomer was: Th-Gp-Gh-Tp-Ch-Tp-Ch-Ap-Ah-Gp-Th-Cp-Ah-Gp-Th-Gp-dT, where the subscript h denotes a “HypNA” monomeric unit and the subscript p denotes a “pPNA” monomeric unit. […] For performing DNA-DNA control hybridizations, a DNA oligomer with a sequence identical to that of the […] oligomer, […]) was also synthesized. To perform the melting curve analysis, the DNA oligomers and […] oligomers were mixed at a 1:1 in a volume of 400 microliters. For nucleic acid hybridization controls, DNA oligomers and complementary (or partially complementary) DNA oligomers, were mixed at a 1:1 ratio in a volume of 400 microliters. The hybridization solutions contained 20 millimolar Tris-HCl, pH 7.5, 150 millimolar NaCl, and 10 millimolar MgCl2. The mixtures of DNA oligomers or DNA oligomers with […] oligomers were then incubated at 90 degrees C. for 3 minutes and allowed to cool gradually to room temperature overnight. […] Changes in the absorbance at 260 nanometers were recorded, and a Tm was calculated for each combination of oligomers. In some cases, there was no discernible Tm, which we interpret to be the result of the inability of particular oligomer pairs to form stable complexes.

[2] = tested on: HypNA-pPNA 16-mer; experiment: Melting curve analysis, mismatch discrimination in moderate salt, PNA/DNA; settings: for Tm, ° C. PNA/DNA: 20 millimolar Tris-HCl, pH 7.5, 150 millimolar NaCl, 10 millimolar MgCl2, oligomers 1:1, * = Tms not reliable, complex probably unstable; for ΔTm PNA/DNA: 150 millimolar NaCl, relative to no mismatches
Description: as §1

[3] = tested on: HypNA-pPNA 16-mer; experiment: Melting curve analysis, mismatch discrimination in high salt, PNA/DNA; settings: for Tm, ° C. PNA/DNA: 20 millimolar Tris-HCl, pH 7.5, 500 millimolar NaCl, 10 millimolar MgCl2, oligomers 1:1; for ΔTm PNA/DNA: 500 millimolar NaCl, relative to no mismatches
Description: (§2) The sequence of the […] oligomer was: Th-Gp-Gh-Tp-Ch-Tp-Ch-Ap-Ah-Gp-Th-Cp-Ah-Gp-Th-Gp-. […] For performing DNA-DNA control hybridizations, a DNA oligomer with a sequence identical to that of the […] oligomer was also synthesized. To perform the melting curve analysis, the DNA oligomers and […] oligomers were mixed at a 1:1 ratio in a volume of 400 microliters. For nucleic acid hybridization controls, DNA oligomers and complementary (or nearly complementary) DNA oligomers, were mixed at a 1:1 ratio in a volume of 400 microliters. The hybridization solutions contained 20 millimolar Tris-HCl, pH 7.5, 500 millimolar NaCl, and 10 millimolar MgCl2. The mixtures of DNA oligomers or DNA oligomers with […] oligomers were then incubated at 90 degrees C. for 3 minutes and allowed to cool gradually to room temperature overnight. […] Changes in the absorbance at 260 nanometers were recorded, and a Tm was calculated for each combination of oligomers. In some cases, there was no discernible Tm, which we interpret to be the result of the inability of particular oligomer pairs to form stable complexes.

[4] = tested on: DNA oligomer with a sequence identical to that of the HypNA-pPNA oligomer; experiment: Melting curve analysis, mismatch discrimination in high salt, DNA/DNA control; settings: for Tm, ° C. DNA/DNA: 20 millimolar Tris-HCl, pH 7.5, 500 millimolar NaCl, 10 millimolar MgCl2, oligomers 1:1; for ΔTm DNA/DNA: 500 millimolar NaCl, relative to no mismatches
Description: as §2

[5] = tested on: Oligonucleotide probes labeled with ^32P (DNA probe); experiment: Hybridization of support-bound polyacrylamide-oligomer co-polymers to labeled oligonucleotide probes; effect of single-base mismatches; settings: 0.1 M NaCl, 10 mM sodium phosphate (pH 7), 5 mM EDTA, 10 mM MgCl2, 0.1% sodium dodecyl sulfate
[6] = tested on: 16 mer poly A DNA; experiment: Melting curve analysis of poly T probes hybridized to poly A DNA; settings: 20 mM Tris, pH 7.5, 100 mM NaCl, 10 mM MgCl2; DNA to PNA oligomer 1:2 for PNA analogues
Description: (§3) In this experiment we compared hybridized complexes of DNA/DNA, DNA/PNAs, RNA/DNA and PNA/PNAs, for the stability of the complex formed. Poly A DNA oligomers, poly T DNA oligomers, poly A RNA oligomers, and poly T RNA oligomers were synthesized by solid phase synthesis. PNA oligonucleotide analogues were synthesized by solid phase synthesis using methods disclosed herein. The classical PNA Poly T oligomer consisted of a PNA having a N-(2-aminoethyl)glycine backbone. […] The 1:2 Poly T PNA consisted of: biotin-linker-(HypNA-pPNA-pPNA)5-dT. The 1:3 Poly T PNA consisted of: biotin-linker-[(HypNA-pPNA)-(pPNA-pPNA)]4-dT.
(§4) To hybridize DNA/DNA and DNA/RNA oligomers, equal amounts of oligonucleotide were mixed in 20 mM Tris, pH 7.5, 100 mM NaCl, 10 mM MgCl2, incubated at 90° C. for 3 minutes and left to cool gradually to room temperature overnight. Samples were then heated at a rate of 1° C. per minute from 20° C. to 100° C., using a spectrophotometer linked to a thermal control unit. Changes in A260 were recorded and a Tm value was calculated for each complex.
(§5) To hybridize PNA oligonucleotide analogues to DNA and RNA oligomers, the ratio of DNA (or RNA) oligomer to PNA oligomer was 1:2. This 1:2 ratio was used to promote the formation of a triplex structure, with 2 PNA oligomers binding to each DNA oligomer.
(§6) These samples were hybridized and treated in a identical manner to the DNA/DNA and DNA/RNA complexes to obtain Tm values.

[7] = tested on: 16 mer poly A RNA; experiment: Melting curve analysis of poly T probes hybridized to poly A RNA; settings: 20 mM Tris, pH 7.5, 100 mM NaCl, 10 mM MgCl2; RNA to PNA oligomer 1:2 for PNA analogues
Description: as §3, §4, §5, §6

Substance	Tm, ° C. DNA/DNA [1]	ΔTm DNA/DNA [1]	ΔTm PNA/DNA [2]	Tm, ° C. PNA/DNA [3]	Tm, ° C. DNA/DNA [4]	also measured
5′-CAC GGA GTT GAG ACC A -3′ (SEQ ID NO: 32) (DNA CACGGAGTTGAGACCA; DNA, backbone not given here) [Mismatch M, DNA oligomer with mismatches to the HypNA-pPNA 16-mer]	50.2 °C and 45.2 °C	11.5 °C and 16.4 °C				
5′-CAC TGA ATT GAG ACC A -3′ (SEQ ID NO: 30) (DNA CACTGAATTGAGACCA; DNA, backbone not given here) [Mismatch J, DNA oligomer with mismatch to the HypNA-pPNA 16-mer]	52.3 °C and 52.5 °C	9.3 °C and 9.2 °C				
5′-CAC TGA CAT GAG ACC A -3′ (SEQ ID NO: 28) (DNA CACTGACATGAGACCA; DNA, backbone not given here) [Mismatch H, DNA oligomer with mismatch to the HypNA-pPNA 16-mer]	50.0 °C and 53.4 °C	11.6 °C and 8.3 °C	5.5 °C and 6.1 °C	41.3 °C and 43.5 °C	55.1 °C and 53.3 °C	Tm, ° C. PNA/DNA [2]: 52.7 °C and 51.8 °C; ΔTm PNA/DNA [3]: 17 °C and 15 °C; ΔTm DNA/DNA [4]: 9 °C and 11 °C
5′-CAC TGA CGT GAG ACC A -3′ (SEQ ID NO: 26) (DNA CACTGACGTGAGACCA; DNA, backbone not given here) [Mismatch F, DNA oligomer with mismatch to the HypNA-pPNA 16-mer]	52.6 °C and 55.6 °C	9 °C and 6.1 °C	14.5 °C and 14.2 °C	No Tm	53.9 °C and 55.3 °C	Tm, ° C. PNA/DNA [2]: 43.7 °C; ΔTm DNA/DNA [4]: 10 °C and 9 °C
5′-CAC TGA CTG GAG ACC A -3′ (SEQ ID NO: 27) (DNA CACTGACTGGAGACCA; DNA, backbone not given here) [Mismatch G, DNA oligomer with mismatch to the HypNA-pPNA 16-mer]	52.2 °C and 52.6 °C	9.4 °C and 9.1 °C		No Tm	56.2 °C and 56.1 °C	ΔTm DNA/DNA [4]: 8 °C
5′-CAC TGA CTT GAG ACC A -3′ (SEQ ID NO: 20) [No mismatches]	61.7 °C and 61.6 °C			59.1 °C and 58.0 °C	63.8 °C and 64.5 °C and 64.0 °C	Tm, ° C. PNA/DNA [2]: 57.9 °C and 58.2 °C
5′-CAC TGA CTT GAG ACG A -3′ (SEQ ID NO: 24) (DNA CACTGACTTGAGACGA; DNA, backbone not given here) [Mismatch D, DNA oligomer with mismatch to the HypNA-pPNA 16-mer]				54.3 °C and 54.9 °C	60.8 °C and 62.7 °C	ΔTm PNA/DNA [3]: 4 °C and 3 °C
5′-CAC TGA CTT GAG TCC A -3′ (SEQ ID NO: 23) (DNA CACTGACTTGAGTCCA; DNA, backbone not given here) [Mismatch C, DNA oligomer with mismatch to the HypNA-pPNA 16-mer]	51.6 °C and 53.8 °C	10 °C and 7.9 °C	9.9 °C and 8.7 °C			Tm, ° C. PNA/DNA [2]: 48.3 °C and 49.2 °C
5′-CAC TGA GTG GAG ACC A -3′ (SEQ ID NO: 22) (DNA CACTGAGTGGAGACCA; DNA, backbone not given here) [Mismatch B, DNA oligomer with mismatches to the HypNA-pPNA 16-mer]	42.6 °C	19 °C and 18.9 °C		No Tm		
5′-CAC TGA GTT CAG ACC A -3′ (SEQ ID NO: 29) (DNA CACTGAGTTCAGACCA; DNA, backbone not given here) [Mismatch K, DNA oligomer with mismatches to the HypNA-pPNA 16-mer]	33.3 °C and 36.2 °C	28.3 °C and 25.5 °C	7 °C			
5′-CAC TGA GTT GAG ACC A -3′ (SEQ ID NO: 21) [Mismatch A]	51.7 °C and 51.8 °C	9.9 °C	13.1 °C and 12.5 °C	41.4 °C and 41.1 °C		Tm, ° C. PNA/DNA [2]: 45.1 °C and 45.4 °C; ΔTm PNA/DNA [3]: 17 °C; ΔTm DNA/DNA [4]: 7 °C
5′-CAC TGA GTT GGG ACC A -3′ (SEQ ID NO: 31) (DNA CACTGAGTTGGGACCA; DNA, backbone not given here) [Mismatch L, DNA oligomer with mismatches to the HypNA-pPNA 16-mer]	47.4 °C and 50.0 °C	14.2 °C and 11.7 °C	24.3 °C			
5′-CGG TGA CTT GAG ACC A -3′ (SEQ ID NO: 25) (DNA CGGTGACTTGAGACCA; DNA, backbone not given here) [Mismatch E, DNA oligomer with mismatches to the HypNA-pPNA 16-mer]	52.7 °C and 55.1 °C	8.9 °C and 6.6 °C		No Tm	56.5 °C and 56.8 °C	ΔTm DNA/DNA [4]: 7 °C
19 (DNA CTGCAAAGGACACCATGA; DNA, backbone not given here) [Oligomer 19]						Td (degr. C.) [5]: 55 degr. C.; Tm (degr. C.) [5]: 54 degr. C.
20 (DNA CTGCAAAGCACACCATGA; DNA, backbone not given here) [Oligomer 20]						Td (degr. C.) [5]: 41 degr. C.; Tm (degr. C.) [5]: 40 degr. C.
biotin-linker-(HypNA-pPNA)7-dT [1:1 Poly T PNA-analog]						Target: 16 mer poly A DNA Tm, ° C. [6]: 81.1 °C and 81.9 °C; Target: 16 mer poly A RNA Tm, ° C. [7]: 73.0 °C and 72.7 °C
biotin-linker-(HypNA-pPNA-pPNA)5-dT [1:2 Poly T PNA-analog]						Target: 16 mer poly A DNA Tm, ° C. [6]: 74.4 °C and 74.0 °C; Target: 16 mer poly A RNA Tm, ° C. [7]: 66.1 °C and 66.0 °C
biotin-linker-[(HypNA-pPNA)-(pPNA-pPNA)]4-dT [1:3 Poly T PNA-analog]						Target: 16 mer poly A DNA Tm, ° C. [6]: 60.9 °C and 60.8 °C; Target: 16 mer poly A RNA Tm, ° C. [7]: 48.9 °C and 47.2 °C
